{"source": "patent US20140161813A1", "about": "“METHODS FOR THE DIAGNOSIS, TREATMENT AND MONITORING OF CANCER” (priority 2012, published 2014)", "origin": "cited, not measured here", "key": {"[1]": {"system": "spontaneous tumors in dogs (thyroid carcinoma, malignant peripheral nerve sheath tumor, anal gland adenocarcinoma, spinal meningioma)"}, "[2]": {"system": "human tumor 60 cell line screen", "settings": "colon, ovarian and breast carcinomas and central nervous system tumors"}}, "data": [{"substance": "nitrosylcobalamin [NO-Cbl]", "values": [{"measurement": "systemic or local toxicity", "setting": "[1]; case study in dogs with spontaneous tumors", "result": "no evidence of systemic or local toxicity"}, {"measurement": "dogs in which the tumor was completely eliminated", "setting": "[1]; extended follow-up, daily NO-Cbl treatment ranging in duration from 6 to 15 months", "result": "3 of 4"}, {"measurement": "decrease in tumor size", "setting": "[1]; remaining 1 of 4 dogs, daily NO-Cbl treatment over the course of 6 months", "result": 77, "unit": "%"}, {"measurement": "antigrowth effects, tumor types most responsive", "setting": "[2]", "result": "colon, ovarian and breast carcinomas as well as central nervous system tumors were most responsive"}]}]}
